{"source": "patent US6979676B2", "about": "(priority 2002, dated 2005)", "key": {"[1]": {"experiment": "Solubility of Formula I in various vehicles", "assay_type": "physicochemical", "settings": "thermodynamic from solid, room temperature after 1 day"}, "[2]": {"experiment": "Degradation rate of Formula I in various pH conditions (T90 at 80° C.)", "assay_type": "physicochemical"}, "[3]": {"experiment": "Stability of Formula I in PG/water or PG/buffers (HPLC purity, initial point vs 80° C./4 days)", "assay_type": "physicochemical", "settings": "5 mg/mL, initial point and 80° C./4 days"}, "[4]": {"experiment": "Stability of Formula I in various PG/buffer solutions (HPLC purity, initial point vs 80° C./8 days)", "assay_type": "physicochemical", "settings": "initial point and 80° C./8 days"}, "[5]": {"experiment": "physchem"}, "[6]": {"settings": "50% PG/75 mM citrate buffer (pH = 4)"}}, "note": "Read-outs that look alike come from different tables or passages of the source."}
{"smiles": "O=C1c2c(c3c4ccc(O)cc4n(C4OC(CO)C(O)C(O)C4O)c3c3[nH]c4cc(O)ccc4c23)C(=O)N1NC(CO)CO", "note": "[Formula I, 12,13-dihydro-2,10-dihydroxy-6-N-(1-hydroxymethyl-2-hydroxyethylamino)-13-(β-D-glucopyranosyl)-5H-indolo[2,3-α]pyrrolo[3,4-c]carbazole-5,7(6H)-dione]", "values": [{"measurement": "solubility at 1 day", "setting": "[1]; aqueous buffer, 50 mM citrate buffer (pH = 3)", "value": 920, "unit": "µg/mL"}, {"measurement": "solubility at 1 day", "setting": "[1]; aqueous buffer, 50 mM citrate buffer (pH = 4)", "value": 810, "unit": "µg/mL"}, {"measurement": "solubility at 1 day", "setting": "[1]; aqueous buffer, 50 mM citrate buffer (pH = 5)", "value": 720, "unit": "µg/mL"}, {"measurement": "solubility at 1 day", "setting": "[1]; aqueous buffer, 50 mM citrate buffer (pH = 6)", "value": 720, "unit": "µg/mL"}, {"measurement": "solubility at 1 day", "setting": "[1]; aqueous buffer, 50 mM citrate buffer (pH = 7)", "value": 670, "unit": "µg/mL"}, {"measurement": "solubility at 1 day", "setting": "[1]; aqueous with cosolvent or surfactant or cyclodextrin, 25% PEG 400/water (w/v)", "value": 16000, "unit": "µg/mL"}, {"measurement": "solubility at 1 day", "setting": "[1]; aqueous with cosolvent or surfactant or cyclodextrin, 25% PG/water (w/v)", "value": 4000, "unit": "µg/mL"}, {"measurement": "solubility at 1 day", "setting": "[1]; aqueous with cosolvent or surfactant or cyclodextrin, 40% PG/water (w/v)", "value": 12000, "unit": "µg/mL"}, {"measurement": "solubility at 1 day", "setting": "[1]; aqueous with cosolvent or surfactant or cyclodextrin, 50% PEG 400/water (w/v)", "value": 25000, "unit": "µg/mL"}, {"measurement": "solubility at 1 day", "setting": "[1]; aqueous with cosolvent or surfactant or cyclodextrin, 50% PG/50 mM citrate buffer (pH = 3)", "value": 24000, "unit": "µg/mL"}, {"measurement": "solubility at 1 day", "setting": "[1]; aqueous with cosolvent or surfactant or cyclodextrin, 50% PG/50 mM citrate buffer (pH = 4)", "value": 25000, "unit": "µg/mL"}, {"measurement": "solubility at 1 day", "setting": "[1]; aqueous with cosolvent or surfactant or cyclodextrin, 50% PG/50 mM citrate buffer (pH = 5)", "value": 26000, "unit": "µg/mL"}, {"measurement": "solubility at 1 day", "setting": "[1]; aqueous with cosolvent or surfactant or cyclodextrin, 50% PG/50 mM citrate buffer (pH = 6)", "value": 27000, "unit": "µg/mL"}, {"measurement": "solubility at 1 day", "setting": "[1]; aqueous with cosolvent or surfactant or cyclodextrin, 50% PG/50 mM citrate buffer (pH = 7)", "value": 27000, "unit": "µg/mL"}, {"measurement": "solubility at 1 day", "setting": "[1]; aqueous with cosolvent or surfactant or cyclodextrin, 50% PG/water (w/v)", "value": 24000, "unit": "µg/mL"}, {"measurement": "solubility at 1 day", "setting": "[1]; aqueous with cosolvent or surfactant or cyclodextrin, 75% PEG 400/water (w/v)", "value": 24000, "unit": "µg/mL"}, {"measurement": "solubility at 1 day", "setting": "[1]; aqueous with cosolvent or surfactant or cyclodextrin, 75% PG/water (w/v)", "value": 45000, "unit": "µg/mL"}, {"measurement": "solubility at 1 day", "setting": "[1]; organic solvent or mixture, 100% PEG 400", "value": "< 670", "unit": "µg/mL"}, {"measurement": "solubility at 1 day", "setting": "[1]; organic solvent or mixture, 100% PG", "value": 1200, "unit": "µg/mL"}, {"measurement": "solubility at 1 day", "setting": "[1]; saline or isotonic, 5% glucose/water", "value": 600, "unit": "µg/mL"}, {"measurement": "solubility at 1 day", "setting": "[1]; water", "value": 620, "unit": "µg/mL"}, {"measurement": "T90 (time required to degrade Formula I to 90% of the initial concentration)", "setting": "[2]; pH 2", "value": 0.9, "unit": "days"}, {"measurement": "T90 (time required to degrade Formula I to 90% of the initial concentration)", "setting": "[2]; pH 3, extrapolated data", "value": 19, "unit": "days"}, {"measurement": "T90 (time required to degrade Formula I to 90% of the initial concentration)", "setting": "[2]; pH 4, extrapolated data", "value": 89, "unit": "days"}, {"measurement": "T90 (time required to degrade Formula I to 90% of the initial concentration)", "setting": "[2]; pH 5, extrapolated data", "value": 7.8, "unit": "days"}, {"measurement": "T90 (time required to degrade Formula I to 90% of the initial concentration)", "setting": "[2]; pH 6", "value": 2.3, "unit": "days"}, {"measurement": "T90 (time required to degrade Formula I to 90% of the initial concentration)", "setting": "[2]; pH 7", "value": 0.233, "unit": "days"}, {"measurement": "T90 (time required to degrade Formula I to 90% of the initial concentration)", "setting": "[2]; pH 8", "value": 0.0194, "unit": "days"}, {"measurement": "T90 (time required to degrade Formula I to 90% of the initial concentration)", "setting": "[2]; pH 9", "value": 0.00486, "unit": "days"}, {"measurement": "T90 (time required to degrade Formula I to 90% of the initial concentration)", "setting": "[2]; pH 10", "value": 0.000833, "unit": "days"}, {"measurement": "Stability of Formula I (purity by HPLC)", "setting": "[3]; 50% PG/75 mM citrate buffer (pH = 3)", "value": "−2.4", "unit": "%"}, {"measurement": "Stability of Formula I (purity by HPLC)", "setting": "[3]; [6]", "value": "−2.2", "unit": "%"}, {"measurement": "Stability of Formula I (purity by HPLC)", "setting": "[3]; 50% PG/75 mM citrate buffer (pH = 5)", "value": "−2.9", "unit": "%"}, {"measurement": "Stability of Formula I (purity by HPLC)", "setting": "[3]; 50% PG/water", "value": "−9.3", "unit": "%"}, {"measurement": "Stability of Formula I (purity by HPLC)", "setting": "[4]; 50% PG/50 mM citrate buffer (pH = 4)", "value": "−5.50", "unit": "%"}, {"measurement": "Stability of Formula I (purity by HPLC)", "setting": "[4]; 50% PG/50 mM tartrate buffer (pH = 4)", "value": "−6.12", "unit": "%"}, {"measurement": "Stability of Formula I (purity by HPLC)", "setting": "[4]; [6]", "value": "−6.49", "unit": "%"}, {"measurement": "Stability of Formula I (purity by HPLC)", "setting": "[4]; 50% PG/water", "value": "−30.68", "unit": "%"}, {"measurement": "Stability of Formula I (purity by HPLC)", "setting": "1 month, 0.15 mg/mL", "value": "−0.68", "unit": "%"}, {"measurement": "Stability of Formula I (purity by HPLC)", "setting": "50% PEG 400/water, 10 mg/mL, initial point and 40° C./1 month", "value": "−2.9", "unit": "%"}, {"measurement": "Stability of Formula I (purity by HPLC)", "setting": "50% PG/water, 10 mg/mL, initial point and 40° C./1 month", "value": "−0.03", "unit": "%"}, {"measurement": "solubility", "setting": "[5]; aqueous with cosolvent or surfactant or cyclodextrin", "value": 10000, "unit": "µg/mL"}, {"measurement": "solubility", "setting": "[5]; saline or isotonic", "value": 150, "unit": "µg/mL"}]}
